# Reference: patent US20250057844A1, “METHODS OF TREATING NEOPLASTIC DISEASES” (SILLAJEN, INC., priority 2021, published 2025)
# “Also recorded” adds a separate entry of the source. Like-named read-outs stand apart in the source and are kept apart here.
# Experiments:
# tumor-derived TTK = target: T1, tumor-derived TTK (Homo sapiens, UniProt P33981); experiment: Tumor TTK target occupancy in MDA-MB-231 xenograft-bearing mice; format: in vivo
# T1 construct: TTK target occupancy was also measured in tumors derived from MDA-MB-231 xenograft-bearing mice; from tissue; host or cells: MDA-MB-231 xenograft tumours grown in mice
# T1 sequence (P33981 1-857): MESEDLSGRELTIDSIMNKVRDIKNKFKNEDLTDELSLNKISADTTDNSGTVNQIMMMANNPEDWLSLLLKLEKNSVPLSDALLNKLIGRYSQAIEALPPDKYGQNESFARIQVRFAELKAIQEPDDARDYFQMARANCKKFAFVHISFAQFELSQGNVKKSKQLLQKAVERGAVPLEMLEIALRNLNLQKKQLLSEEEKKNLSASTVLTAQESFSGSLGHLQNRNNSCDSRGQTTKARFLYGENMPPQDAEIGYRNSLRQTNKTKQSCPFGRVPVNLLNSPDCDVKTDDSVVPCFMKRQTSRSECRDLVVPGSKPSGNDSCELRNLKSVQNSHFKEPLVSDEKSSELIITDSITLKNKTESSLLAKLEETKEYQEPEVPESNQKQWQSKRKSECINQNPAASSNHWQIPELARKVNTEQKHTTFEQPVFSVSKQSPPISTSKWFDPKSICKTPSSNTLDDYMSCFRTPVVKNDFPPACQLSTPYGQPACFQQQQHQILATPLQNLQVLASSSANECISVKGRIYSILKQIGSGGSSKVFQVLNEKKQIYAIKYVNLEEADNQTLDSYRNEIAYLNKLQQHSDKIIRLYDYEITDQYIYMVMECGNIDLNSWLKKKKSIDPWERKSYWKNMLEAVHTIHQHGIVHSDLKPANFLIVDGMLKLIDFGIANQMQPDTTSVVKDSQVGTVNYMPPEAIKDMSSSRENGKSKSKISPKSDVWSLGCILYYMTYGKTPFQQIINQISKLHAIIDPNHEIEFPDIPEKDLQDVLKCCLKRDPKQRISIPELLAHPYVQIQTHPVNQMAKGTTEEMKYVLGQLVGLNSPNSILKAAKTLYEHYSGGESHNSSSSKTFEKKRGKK
# Protocol: Prolonged TTK target occupancy was also measured in tumors derived from MDA-MB-231 xenograft-bearing mice treated with intermittent i.v. dosing regimen of compound of formula (I). […]
# [1] = Maximum tolerated dose (MTD) in mice; settings: mouse, in vivo
# MDA-MB-231 tumor cells = experiment: MDA-MB-231 TNBC xenograft study
# Protocol: Female NCr nu/nu nude mice (CharlesRiver laboratories) of 8-12 weeks of age were subcutaneously (s.c.) inoculated in the flank with 5×10^6 MDA-MB-231 tumor cells. Randomization into treatment groups (8 mice per group) was made when the mean tumor size was 100-150 mm3.
# Body weights and tumor volumes were determined at least twice per week by measuring two dimensions with calipers and applying the formula “V=(L×W2)/2”, where V is the tumor volume, and L and W are the tumor length and width respectively. […] Mice were also culled if the BWL was determined to be >15% for 3 consecutive days. Any mice with >10% BWL received a dosing holiday until the BWL returned to <10%. All animal protocols were reviewed and approved by the relevant local committees in USA (IACUC) where the studies were performed.
# [2] = First PK study: single oral dose, two formulations; format: in vivo, female Swiss Albino mice; settings: for Tmax / bioavailability / AUC(0-inf) / AUC(0-t) / Cmax / half-life: Swiss Albino, mouse, plasma; for bioavailability: based on i.v. exposure; for AUC(0-t): AUC0-24 h; for Cmax: mean (SD); for half-life: read-out: Apparent T1/2 (converted)
# Protocol: Plasma samples were collected on day 1 for Groups 1 to 6. Formulation 1 consisted of DMSO, cremophor EL, and 5% mannitol in water (10/10/80; v/v/v). Formulation 2 consisted of ethanol, PEG 400, and citric acid 20 mM (10/10/80; v/v/v). […] In each of the three studies blood was collected via the sephanous vein into K2-EDTA tubes kept on ice until centrifugation at 4° C. Plasma was stored at ap-proximately-80° C. […] PK parameters were calculated using Phoenix® WinNonLin 6.4. PK analysis was based on sparse sampling.
# [3] = female, po, 5 mg/kg, single oral 5 mg/kg, Formulation 1, female mice
# [4] = female, po, 5 mg/kg, single oral 5 mg/kg, Formulation 2, female mice
# [5] = female, po, 7.5 mg/kg, single oral 7.5 mg/kg, Formulation 1, female mice
# [6] = female, po, 7.5 mg/kg, single oral 7.5 mg/kg, Formulation 2, female mice
# [7] = female, po, 10 mg/kg, single oral 10 mg/kg, Formulation 1, female mice
# [8] = female, po, 10 mg/kg, single oral 10 mg/kg, Formulation 2, female mice
# [9] = single oral 5 mg/kg, Formulation 1, female mice
# [10] = single oral 5 mg/kg, Formulation 2, female mice
# [11] = single oral 7.5 mg/kg, Formulation 1, female mice
# [12] = single oral 7.5 mg/kg, Formulation 2, female mice
# [13] = single oral 10 mg/kg, Formulation 1, female mice
# [14] = single oral 10 mg/kg, Formulation 2, female mice
smiles,measurement,setting,value
COc1cc(N2CCNCC2)ccc1Nc1ncc2c(n1)-n1ccc(C(=O)Nc3c(C)cccc3C)c1CC2 [compound of formula (I)],time TTK completely occupied after last dose,"tumor-derived TTK; IV twice-weekly, MTD dose, MDA-MB-231 tumors",at least 72 h
same,time tumor-derived TTK fully drug-occupied after last administration,"tumor-derived TTK; IV weekly MTD dosing, repeat experiment",up to 6 days
same,MTD,"[1]; iv, 2QW",12.5 mg/kg
same,MTD,"[1]; iv, QW",25 mg/kg
same,MTD,"[1]; po, orally daily",7.5 mg/kg
same,Tumor-free (%) (cured based on pathological analysis),"MDA-MB-231 tumor cells; 25 mg/kg, QW, IV",25%
same,Tumor-free (pathological evaluation),"MDA-MB-231 tumor cells; 25 mg/kg, QW, IV, mouse 2 and 3",no detectable residual tumor cells; also recorded: no neoplastic epithelial cells (residual tumor cells) were observed
same,Tumor-free (pathological evaluation),"MDA-MB-231 tumor cells; 25 mg/kg, QW, IV, mouse 2 and 3, listed as Formula (I)",Yes
same,Tumor-free (pathological evaluation),"MDA-MB-231 tumor cells; 25 mg/kg, QW, IV, mouse 8",two small aggregates of neoplastic cells at the inoculation site; also recorded: still displayed some neoplastic tissue
same,Tumor-free (pathological evaluation),"MDA-MB-231 tumor cells; 25 mg/kg, QW, IV, mouse 8, listed as Formula (I)",No
same,local finding leading to treatment stop at Day-30,"MDA-MB-231 tumor cells; 2QW MTD i.v. dosing, repeated IV-injections",tail vein irritations (scabbing)
same,efficacy of 0.5×MTD i.v. dosing versus MTD daily oral dosing,MDA-MB-231 tumor cells; FIG. 3 and FIG. 4,equipotent efficacy
same,animals with no measurable/palpable tumor mass,"MDA-MB-231 tumor cells; QW MTD i.v. until Day-98, observed Day-80 to Day-125, two of eight animals (FIG. 3 study)",25%
same,residual tumor cells by H&E (two animals without palpable tumor),"MDA-MB-231 tumor cells; QW MTD i.v., FIG. 3 study, Day-125",tumor-free
same,efficacy of MTD i.v. dosing versus MTD oral daily treatment,"MDA-MB-231 tumor cells; QW and 2QW i.v., FIG. 3 and FIG. 4",far superior
same,drug-related animal deaths,"MDA-MB-231 tumor cells; all i.v. QW and 2QW treatments, FIG. 1",no drug-related animal deaths recorded
same,body weight loss,"MDA-MB-231 tumor cells; dosing at the MTD, i.v., FIG. 1",≤ 10%
same,anti-tumor effect,"MDA-MB-231 tumor cells; i.v. MTD-dosing (QW 25 mg/kg, 2QW 12.5 mg/kg), FIG. 1",tumor stasis and tumor regressions were observed
same,tolerability,"MDA-MB-231 tumor cells; mouse, in vivo","relatively well tolerated, with no animal deaths"
same,tumor volume of three of eight tumors after treatment cessation,"MDA-MB-231 tumor cells; weekly i.v. MTD group, 20 days observation after cessation on D100",≤ 6 mm3
same,Tmax,"[2]; single oral 5 mg/kg, Formulation 1, female mice, read-out: Tmax",4 h
same,Tmax,"[2]; single oral 7.5 mg/kg, Formulation 1, female mice, read-out: Tmax",4 h
same,Tmax,"[2]; single oral 10 mg/kg, Formulation 1, female mice, read-out: Tmax",4 h
same,bioavailability,"[2]; female, oral, single dose administration, read-out: oral bioavailability",76 to 96%
same,AUC(0-inf),[2]; [3],1.1 µg·h/mL
same,AUC(0-t),[2]; [3],1.08 µg·h/mL
same,bioavailability,"[2]; female, po, 5 mg/kg, single oral 5 mg/kg, Formulation 1, female mice, read-out: F (%)",76%
same,Cmax,[2]; [3],0.108 µg/mL
same,half-life,[2]; [3],3.27 h
same,AUC(0-inf),[2]; [4],1.13 µg·h/mL
same,AUC(0-t),[2]; [4],1.12 µg·h/mL
same,bioavailability,"[2]; female, po, 5 mg/kg, single oral 5 mg/kg, Formulation 2, female mice, read-out: F (%)",78%
same,Cmax,[2]; [4],0.103 µg/mL
same,half-life,[2]; [4],3.29 h
same,AUC(0-inf),[2]; [5],1.66 µg·h/mL
same,AUC(0-t),[2]; [5],1.65 µg·h/mL
same,bioavailability,"[2]; female, po, 7.5 mg/kg, single oral 7.5 mg/kg, Formulation 1, female mice, read-out: F (%)",77%
same,Cmax,[2]; [5],0.164 µg/mL
same,half-life,[2]; [5],3.23 h
same,AUC(0-inf),[2]; [6],1.91 µg·h/mL
same,AUC(0-t),[2]; [6],1.88 µg·h/mL
same,bioavailability,"[2]; female, po, 7.5 mg/kg, single oral 7.5 mg/kg, Formulation 2, female mice, read-out: F (%)",88%
same,Cmax,[2]; [6],0.172 µg/mL
same,half-life,[2]; [6],3.51 h
same,AUC(0-inf),[2]; [7],2.48 µg·h/mL
same,AUC(0-t),[2]; [7],2.43 µg·h/mL
same,bioavailability,"[2]; female, po, 10 mg/kg, single oral 10 mg/kg, Formulation 1, female mice, read-out: F (%)",86%
same,Cmax,[2]; [7],0.21 µg/mL
same,half-life,[2]; [7],3.66 h
same,AUC(0-inf),[2]; [8],2.77 µg·h/mL
same,AUC(0-t),[2]; [8],2.73 µg·h/mL
same,bioavailability,"[2]; female, po, 10 mg/kg, single oral 10 mg/kg, Formulation 2, female mice, read-out: F (%)",96%
same,Cmax,[2]; [8],0.276 µg/mL
same,half-life,[2]; [8],3.43 h
same,Tmax,"[2]; female, single oral administration, 5-10 mg/kg, both formulations, read-out: median Tmax",4 h
same,% extrapolated,[2]; [9],1.11%
same,AUCinf/Dose,[2]; [9],220 ng·h/mL/mg/kg
same,AUClast/Dose,[2]; [9],216 (h*ng/mL)/(mg/kg)
same,Cmax/Dose,[2]; [9],21.6 (ng/mL)/(mg/kg)
same,% extrapolated,[2]; [10],1.14%
same,AUCinf/Dose,[2]; [10],226 ng·h/mL/mg/kg
same,AUClast/Dose,[2]; [10],224 (h*ng/mL)/(mg/kg)
same,Cmax/Dose,[2]; [10],20.6 (ng/mL)/(mg/kg)
same,% extrapolated,[2]; [11],1.06%
same,AUCinf/Dose,[2]; [11],221 ng·h/mL/mg/kg
same,AUClast/Dose,[2]; [11],220 (h*ng/mL)/(mg/kg)
same,Cmax/Dose,[2]; [11],21.9 (ng/mL)/(mg/kg)
same,% extrapolated,[2]; [12],1.67%
same,AUCinf/Dose,[2]; [12],255 ng·h/mL/mg/kg
same,AUClast/Dose,[2]; [12],251 (h*ng/mL)/(mg/kg)
same,Cmax/Dose,[2]; [12],22.9 (ng/mL)/(mg/kg)
same,% extrapolated,[2]; [13],1.9%
same,AUCinf/Dose,[2]; [13],248 ng·h/mL/mg/kg
same,AUClast/Dose,[2]; [13],243 (h*ng/mL)/(mg/kg)
same,Cmax/Dose,[2]; [13],21 (ng/mL)/(mg/kg)
same,% extrapolated,[2]; [14],1.47%
same,AUCinf/Dose,[2]; [14],277 ng·h/mL/mg/kg
same,AUClast/Dose,[2]; [14],273 (h*ng/mL)/(mg/kg)
same,Cmax/Dose,[2]; [14],27.6 (ng/mL)/(mg/kg)
